This note sets out measurements from US6294568A, “5-arylpyrrole derivatives” (priority 1997, dated 2001).

The subject of one assay is Sarcoma 180 solid tumor. The assay can be described thus: Antitumor Effect with respect to Sarcoma 180 Solid Tumor Mouse. It counts as in vivo, ICR mice. As to conditions: 10 mg/kg in abdominal cavity, 10 days; day 11. The protocol:
The antitumor effect test was conducted according to the method of the U. S. National Cancer Institute (NCI) (Cancer Chemotherapy Reports part 3, Vol. 3, 1 (1978)). Cell suspension of Sarcoma 180 cells (mouse sarcoma virus) which was employed as the tumor cell strain for transplant was prepared by diluting the cells in the Hank's solution at 2×10^7 cells/ml concentration ([…]), and ICR mice (10 mice per group) aged 5 weeks were injected subcutaneously with 0.2 ml of the cell suspension at the region of the back. Setting the day of the tumor transplantation as day 0. the mice were administered in the abdominal cavity with the compounds of the invention (Preparation Examples 1 and 37), 5-fluorouracyl, and the solution as the control for 10 days consecutively from day 1. On day 11, the mice were sacrificed, and portions of the solid tumor were removed so that weights thereof were measured. The dosage of each of the test samples was 10 mg/kg.

The next assay deals with CaCo-2 cells. In words: Cytostatic Action Test on Various Cells (XTT method). It counts as cell-based. The note with it: Homo sapiens, Caco-2, 72 h, read-out: Cytostatic rate (IC50). The protocol:
The cytostatic measurement of the various cancer cells were conducted according to the method of the U.S. National Cancer Institute (NCI). Adhesive cells such as CaCo-2 and HepG2 were adjusted in each of the specified culture mediums at 0.5×10^5 cells/ml concentration and pipetted into a 96 well-plate (Costar3695) in an amount of 100 μl/well. The cells were cultured under the conditions of at 37° C. in 5% CO2 atmosphere for 24 hours to allow the cell adhesion, and then the numbers of each of the cells were determined by the XTT method to be recorded as the cell number of day 0 (C0days). After that, only the medium solutions were exchanged in the control groups, and culture mediums each containing the test samples adjusted to each of the specified concentrations were exchanged In the test sample dispensing groups, then the cells were cultured under the conditions of at 37° C. in 5% CO2 atmosphere for 72 hours. The numbers of each of the cells were determined by the XTT method to be recorded as the cell number of day 3 (C3days). Further, only the medium solutions were pipetted into the control groups and the test sample administration groups were adjusted to 5×10^5 cells/ml concentrations in each of the specified culture mediums containing the test samples adjusted to each of the specified concentrations, then pipetted into a 96 well-plate (Costar3695) in an amount of 100 μl/well. The cells were cultured under the condition of at 37° C. in 5% CO2 atmosphere for 72 hours, and the number of each of the cells (T3days) were determined in the same manner.
Cell proliferation rate (%) with respect to control groups=[(T3days
-C0days)/(C3days -C0days)]×100 Formula: 5

The test system of the next assay is Brewer's Yeast Fever. The assay can be described thus: Antipyretic Action Test With Respect To Brewer's Yeast Fever. It counts as in vivo, rats. The protocol: The antipyretic action was measured as described in the following. A sensor was inserted into the rectum of each rats and the body temperature of one hour after the insertion was recorded as the basal body temperature. The rats were injected subcutaneously with 2 ml/body of 20% brewer's yeast at the region of back and, 18 hours after the injection, the intrafebrile body temperatures were measured. Rats who had shown not less than 0.75° C. of body temperature elevation were selected to whom the test samples was administered orally. The body temperatures of the selected rats were measured every one hour for the following 5 hours. The dosage of each of the test samples was 10 mg/kg.

Assay [1] deals with pain threshold of brewer's yeast inflamed hind paw. The assay can be described thus: Analgesic Action Test (Randall et al.). As to conditions: 3 mg/kg. It counts as in vivo, SD rats. The protocol: SD rats (6 rats per group) fasted overnight were employed for the test. After the measurement of pain threshold values of the left and right hind paws twice using an analgesimeter, the rats were injected subcutaneously with 0.1 ml of 20% brewer's yeast solution at the plantar area of the right hind paw to elicit inflammation. Two hours after the elicitation of inflammation, the pain threshold values of the left and right hind paws were measured and, immediately after the measurement, the test samples were administered orally to the rats. Three hours after the administration, the pain threshold values of the left and right hind paws were measured. […] The dosage amount of each of the test samples was 3 mg/kg.
Pain threshold value rising rate (%)=((pain threshold value of 3 hours after drug administration-pain threshold value of 2 hours after yeast administration)/(pain threshold value before yeast administration-pain threshold value of 2 hours after yeast administration))×100
Pain threshold value fluctuation rate (%)=(1 -(pain threshold value of 3 hours after drug administration/pain threshold value of 2 hours after […]

The next assay has as its system adjuvant arthritis. The assay can be described thus: Rat Adjuvant Arthritis Test. It counts as in vivo, SD rats. The note with it: 3 mg/kg, oral. On the procedure: SD rats were injected subcutaneously with […] liquid paraffin/rat of H-37RA strain in the plantar area of the right hind paw. Only liquid paraffin (0.05 ml) was administered to control groups in the same manner. 21 days after the administration, rats showing the evidence of arthritis were selected and divided into groups having equal mean left and right hind paw volumes, and also having equal arthritis scores. From the date of the grouping, the test samples were administered orally to the rats once daily for 7 days (only the solvent was administered to the negative and positive control groups). The degree of the arthritis was quantitatively evaluated by measuring the volumes of the left and right hind paws by using a volume meter (manufactured by Muromachi Kikai) and by scoring the degree of arthritis by macroscopic observation as illustrated in Table 2. According to the scoring criteria in Table 2, 15 is a perfect score.
The dosage of each of the test samples was 3 mg/kg.

The target in the next assay is T1, Human COX-2 (Homo sapiens, UniProt P35354).
T1 construct: endogenous in cells; host or cells: heparinised whole blood of a healthy human donor pretreated with aspirin, stimulated with LPS (own knowledge: COX-2 is induced in monocytes)
T1 sequence (P35354 18-604): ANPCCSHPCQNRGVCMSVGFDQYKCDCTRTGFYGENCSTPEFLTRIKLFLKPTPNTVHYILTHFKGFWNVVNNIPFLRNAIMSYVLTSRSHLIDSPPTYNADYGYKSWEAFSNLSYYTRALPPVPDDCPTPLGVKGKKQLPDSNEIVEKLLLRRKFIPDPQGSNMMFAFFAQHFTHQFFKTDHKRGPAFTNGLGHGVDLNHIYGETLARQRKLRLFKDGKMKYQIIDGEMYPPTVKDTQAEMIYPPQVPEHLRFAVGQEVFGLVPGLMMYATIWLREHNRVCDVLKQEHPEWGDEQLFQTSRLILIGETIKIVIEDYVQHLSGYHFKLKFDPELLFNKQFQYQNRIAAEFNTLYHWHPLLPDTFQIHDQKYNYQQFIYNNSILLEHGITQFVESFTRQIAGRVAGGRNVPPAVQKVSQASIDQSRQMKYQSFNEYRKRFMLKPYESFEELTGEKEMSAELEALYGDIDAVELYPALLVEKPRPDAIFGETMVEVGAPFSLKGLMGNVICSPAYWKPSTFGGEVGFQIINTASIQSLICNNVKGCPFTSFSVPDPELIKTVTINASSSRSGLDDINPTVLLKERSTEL
In words: Human COX-2 Inhibitory Activity Test (LPS-induced PGE2 in blood). It counts as cell-based. On the procedure:
(§1) COX-1 and COX-2 activities were measured according to the method of Patrignani et al. (J. Pharm. Exp. Ther. Vol. 271, 1705 (1994)).
(2) COX-2 activity was measured in the following procedure. To blood collected from a healthy normal who had taken 330 mg of aspirin 48 hours before the blood collection in order to inhibit the COX-1 activity, 10 unit/ml of sodium heparin was added, and then pipetted into glass test tubes by 1 ml. 10 μg/ml of Lipopolysaccharide (LPS) was added thereto and the plasma obtained by the specified operation was stored at -40° C. until the measurement for the amount of prostaglandin E2 (PGE2). Test samples containing the test samples were treated in the same manner of operation as described above.
(4) The measurement for the PGE2 content was conducted in the following procedure. In a part of 96 well plate coated with goat anti-mouse antibody, 2 wells were alloted respectively to a blank well, Non-specific Binding (NSB) well, Maximum Binding (B0) well, standard wells at seven concentrations of PGE2 (1000 pg/ml) in doubling dilution ranging from 1000-15.6 pg/ml. The rest of the wells were used for the sample measurement. EIA buffer was added to the NSB wells (100 μl) and to the B0 wells (50 μl), respectively. 50 μl of each of the standard dilution was added in an order from thinner to thicker concentrations. Each of the samples was added to the rest of the wells in an amount of 50 μl. Then, 50 μl of PGE2 tracer was added to each of the wells except for blank wells. Further, 50 μl PGE2 monoclonal antibody was added to each of the wells except for the NSB wells and blank wells, then the well plate was covered with a plastic film and the reaction continued at room temperature for 18 hours. When the reaction was terminated, the wells were washed 5 times with a wash buffer. 200 μl of Elman's reagent was added to each of the wells, and then the well plate was covered with a plastic film and developed for 60 minutes in a dark place. The absorbance at 405 nm was measured by an Immuno Reader (NJ-2000, manufactured by Nippon Intermed Co., Ltd.). From the measurement result, %B/B0 was calculated and, applying it to the approximation formula of Hill Plot, the concentration of the samples was determined to be 40 times concentration. The dilution was conducted with an EIA buffer throughout the Test Example 3.

The subject of the next assay is carrageenan footedema. In words: Carrageenan Footedema Suppression Test. It counts as in vivo, SD rats. The note with it: oral; paw volume three hours after carrageenan administration. On the procedure:
The carrageenin footedema suppression test was conducted according to the method of Winter et al. (J. Pharm. Exp. Ther., Vol.141, 369 (1963)). The test samples suspended in Tween 80 were administered orally to SD rats (6 rats per 1 group) in an amount of 1 ml per 100 g of the body weight, while only the solvent was administered in the same manner as above as a control. One hour after the administration, 1% carrageenan physiological saline was injected subcutaneously to the rats in the plantar area of the right hind paw. Three hours after the carrageenan administration, the paw volumes were measured and the edematization rate (%) was calculated with Formula 1 and then edematization suppression rate (%) was calculated with Formula 2.
Edematization rate (%)=((paw volume after carrageenan injection- paw volume before carrageenan injection)/(paw volume before carrageenan injection)×100 Formula: 1
Edematization suppression rate (%)=((edematization rate of control-
edematization rate of test samples)/edematization rate of […]
For orientation: The carrageenan paw model is a standard test of acute inflammation.

A further assay has as its target T2, Human COX-1 (Homo sapiens, UniProt P23219).
T2 construct: endogenous in cells; host or cells: whole blood of a healthy human donor (own knowledge: TXB2 of clotting blood comes from platelet COX-1)
The assay can be described thus: Human COX-1 Inhibitory Activity Test (TXB2 in blood). It counts as cell-based. The note with it: IC50 from Hill Plot. The protocol: as §1
(1) COX-1 activity was measured in the following procedure. […] The serum obtained by 10 minutes of centrifugation at 2000 rpm at 4° C. was stored at -40° C. until the measurement of the amount of thromboxane B2 (TXB2). The test samples, which had been dissolved in ethanol and diluted to the specified concentrations, were previously dispensed into the glass test tubes, and the solvent was evaporated to dryness by Centrifugal Vaporizer (CVE-200D, manufactured by Tokyo Rika Mfg. Co., Ltd.) so that the test samples were added to the plasma.
(3) The measurement for the TXB2 content was conducted in the following procedure. In a part of a 96 well plate coated with anti-rabbit IgG antibody, 2 wells were allotted respectively to blank well, Non-specific Binding (NSB) well, Maximum Binding (B0) well, standard wells at 7 concentrations of TXB2 (1000 pg/ml) in doubling dilution ranging from 1000-15.6 pg/ml. The rest of the wells were used for the measurement of the samples. EIA buffer was added to the NSB wells (100 μl ) and B0 wells (50 μl), respectively. 50 μl of each of the standard dilution was added in an order from thinner to thicker concentrations. Each of the samples was added to the rest of the wells in an amount of 50 μl. Then, 50 μl of TXB2 tracer was added to each of the wells except for the blank wells. Further, 50 μl of TXB2 antibody was added to each of the wells except for the NSB wells and blank wells, then the well plate was covered with a plastic film and the reaction continued for 18 hours at room temperature. When the reaction was terminated, the wells were washed 5 times with a wash buffer. 200 μl of Elman's reagent was added to each of the wells and then the well plate was covered with a plastic film and developed for 60 minutes in a dark place. The absorbance at 405 nm was measured by an Immuno Reader (NJ-2000, manufactured by Nippon Intermed Co., Ltd.). From the measurement result, %B/B0 was calculated and, applying it to the approximation formula of Hill Plot, the concentration of the samples was determined to be 2,000 times concentration. […]

What is called IC50 is the concentration that gives 50% inhibition.

T2 sequence (P23219 24-599): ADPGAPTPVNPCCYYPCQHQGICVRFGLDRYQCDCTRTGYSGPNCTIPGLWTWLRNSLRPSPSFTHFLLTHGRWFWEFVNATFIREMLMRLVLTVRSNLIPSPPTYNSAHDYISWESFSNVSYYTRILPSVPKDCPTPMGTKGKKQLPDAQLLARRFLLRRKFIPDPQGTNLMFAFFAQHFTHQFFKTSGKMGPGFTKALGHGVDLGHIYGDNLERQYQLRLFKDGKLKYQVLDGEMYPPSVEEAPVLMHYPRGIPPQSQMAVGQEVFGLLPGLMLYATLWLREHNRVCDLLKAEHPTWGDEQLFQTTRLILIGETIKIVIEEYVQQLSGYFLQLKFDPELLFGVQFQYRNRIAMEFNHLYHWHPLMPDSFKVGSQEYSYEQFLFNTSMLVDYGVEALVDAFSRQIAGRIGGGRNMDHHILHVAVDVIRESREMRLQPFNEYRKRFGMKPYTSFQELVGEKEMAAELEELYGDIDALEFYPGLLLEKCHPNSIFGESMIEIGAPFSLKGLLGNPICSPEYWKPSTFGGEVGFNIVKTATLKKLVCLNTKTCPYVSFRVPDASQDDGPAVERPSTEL

As to `O=c1[nH]cc(F)c(=O)[nH]1` [5-fluorouracil, reference compound], the “Tumor Weight” value in the assay on Sarcoma 180 solid tumor is 0.930 g. Besides, the IC50 with CaCo-2 cells was found to be 3.3 µM.

Take `CS(=O)(=O)Nc1ccc([N+](=O)[O-])cc1OC1CCCCC1` [Control Compound (c), N-(2-cyclohexyloxy-4-nitrophenyl)methanesulfonamido, reference compound]: the “Body temperature 1 Hour After” value with Brewer's Yeast Fever (10 mg/kg oral, 1 hour after) was determined as 37.67 °C. Besides, the “Body temperature 3 Hours After” value in the assay on Brewer's Yeast Fever (10 mg/kg oral, 3 hours after) stood at 37.04 °C. The “Body temperature 5 Hours After” value in the assay with Brewer's Yeast Fever (10 mg/kg oral, 5 hours after) is 37.12 °C. Also, the “Intrafebrile Body Temperature” value in the assay with Brewer's Yeast Fever (18 hours after yeast injection, before administration, 10 mg/kg group) worked out at 38.89 °C. Also, the “Basal Body Temperature” value in the assay on Brewer's Yeast Fever (one hour after sensor insertion, before yeast, 10 mg/kg group) amounted to 37.41 °C. Further, in assay [1], the “threshold value fluctuation, non-inflammatory paw” value is recorded as “exerted no influence on the threshold value fluctuation with respect to the non-inflammatory paw in the same manner as control compound (c)”. In addition, in assay [1] (po, 3 h), the “Pain Threshold Value Fluctuation Rate” value is -1.46% and the “Pain Threshold Value Rising Rate” value was 24.0%.

Turning to `COc1ccc2c(c1)c(CC(=O)O)c(C)n2C(=O)c1ccc(Cl)cc1` [Indomethacin, reference compound], the “Right Hind Paw Volume day 21” value in the assay with adjuvant arthritis (day 21 (starting date of administration), once daily) came out at 3.88 mL. In the assay with adjuvant arthritis (day 27, once daily for 7 days), the “Right Hind Paw Volume day 27” value came to 2.69 mL.

In the case of `CSc1ccc(-c2cc(C)[nH]c2-c2ccc(S(C)(=O)=O)cc2)cc1` [Preparation Example 18, 4-(4-methylthiophenyl)-2-methyl-5-(4-methylsulfonylphenyl)-1H-pyrrole], the IC50 came to 0.123 µM at Human COX-2 (human blood, LPS, PGE2, IC50 from Hill Plot) and 12.6 µM on Human COX-1. In addition, the COX-1/COX-2 on Human COX-2 (ratio of IC50 COX-1 to COX-2) stood at 102. Moreover, the “Edematization Suppression rate” value in the assay on carrageenan footedema is 48.9%.
